What follows are substances tested on S. aureus ATCC 33592 (assay: not given). Conditions: LYM broth, 0 mM NaCl; 16 h, 37 °C.
Description: (§1) The antibacterial and salt-resistant activity of the peptides was tested using Escherichia coli (ATCC 25922), Pseudomonas aeruginosa Migula (ATCC 27853), Acinetobacter sp. (BCRC number 14B0091, BCRC number 14B0097, and BCRC number 14B0100), and Staphylococcus aureus sp. strains (ATCC 25923, ATCC 33591, ATCC 33592, ATCC 33593, and ATCC 6538). All bacteria were obtained from the Food Industry Research and Development Institute (Hsinchu, Taiwan) and cultured in sterilized Müller-Hinton (MH) broth at 37 °C and 200 rpm for 8 h. The inoculum concentrations were determined by measuring the optical density at 600 nm (OD 600 = 1, approximately 10^8 CFU/mL) using an Ultrospec 2100 pro UV-Visible spectrophotometer (Biochrom Ltd., Cambridge, UK) after 8 h of culture.
The antibacterial activities of the peptides in Müller-Hinton (MH) broth and modified LYM broth were determined using the standard broth microdilution method as per Clinical and Laboratory Standards Institute (CLSI) guidelines. The LYM broth was prepared with specific components and adjusted to different conditions, including varying concentrations of NaCl and MgCl2, and different pH levels. To prepare the LYM broth, 5.4 mM KCl, 5.6 mM Na2HPO4, 0.5 mM MgSO4, and 1.0 mM sodium citrate were added. Additionally, 0.4 mg of ZnCl2, 2.0 mg of FeCl3·6H2O, 0.1 mg of CuSO4·5H2O, 0.1 mg of MnSO4·H2O, 0.1 mg of Na2B4O7∙10H2O, 700 mg of amino acid mixtures without tryptophan (Takara Bio Inc., San Jose, CA, USA), and 20 mg of L-tryptophan were added per liter of medium. The pH was adjusted to 7.4, and a vitamin mixture (100X, Sigma) and glucose concentration of 2% were added. […] Bacterial strains were incubated in MH broth overnight, regrown, and diluted to a final concentration of 5 × 10^5 CFU/mL. Peptides were added to each well at final concentrations of 50, 25, 12.5, 6.25, 3.13, 1.56, and 0.78 µg/mL, and 99 µL of diluted microbes was loaded into each well of a polypropylene 96-well plate. […] The Morpheus HeatMap software (https://software.broadinstitute.org/morpheus/) was used to display MIC values on a color scale. All experiments were independently repeated three times.

Substance | MIC [µg/mL]
Ac-AKKKKWRKWLKWL-NH2 [Peptide W5K10] | 3.13

Same assay, conditions: LYM broth, 0.5 mM MgCl2

Substance | MIC [µg/mL]
Ac-AKKKKWRKWLKWL-NH2 [Peptide W5K10] | 3.13

Same assay, conditions: LYM broth, 1.5 mM MgCl2

Substance | MIC [µg/mL]
Ac-AKKKKWRKWLKWL-NH2 [Peptide W5K10] | 3.13

Same assay, conditions: LYM broth, 2.5 mM MgCl2

Substance | MIC [µg/mL]
Ac-AKKKKWRKWLKWL-NH2 [Peptide W5K10] | 3.13

Same assay, conditions: LYM broth, 50 mM NaCl; 16 h, 37 °C

Substance | MIC [µg/mL]
Ac-AKKKKWRKWLKWL-NH2 [Peptide W5K10] | 6.25

Same assay, conditions: LYM broth, 100 mM NaCl; 16 h, 37 °C

Substance | MIC [µg/mL]
Ac-AKKKKWRKWLKWL-NH2 [Peptide W5K10] | 6.25

Same assay, conditions: LYM broth, 200 mM (NaCl); 16 h, 37 °C

Substance | MIC [µg/mL]
Ac-AKKKKWRKWLKWL-NH2 [Peptide W5K10] | 12.5

Same assay, conditions: LYM broth, 300 mM (NaCl); 16 h, 37 °C

Substance | MIC [µg/mL]
Ac-AKKKKWRKWLKWL-NH2 [Peptide W5K10] | 25

Same assay, conditions: LYM broth, pH 4.5

Substance | MIC [µg/mL]
Ac-AKKKKWRKWLKWL-NH2 [Peptide W5K10] | 3.13

Same assay, conditions: LYM broth, pH 5.5

Substance | MIC [µg/mL]
Ac-AKKKKWRKWLKWL-NH2 [Peptide W5K10] | 3.13

Same assay, conditions: LYM broth, pH 6.5

Substance | MIC [µg/mL]
Ac-AKKKKWRKWLKWL-NH2 [Peptide W5K10] | 3.13

Same assay, conditions: MH broth; 5 × 10^5 CFU/mL, 16 h, 37 °C; repeated three times

Substance | MIC [µg/mL]
Ac-AKKKKWRKWLKWL-NH2 [Peptide W5K10] | 12.5

What follows are substances tested on A. baumannii 14B00100 (Acinetobacter sp., BCRC number 14B0100) (assay: not given). Conditions: LYM broth, 0 mM NaCl; 16 h, 37 °C.
Description: as §1
(§2) The antibacterial activities of the peptides in Müller-Hinton (MH) broth and modified LYM broth were determined using the standard broth microdilution method as per Clinical and Laboratory Standards Institute (CLSI) guidelines. The LYM broth was prepared with specific components and adjusted to different conditions, including varying concentrations of NaCl and MgCl2, and different pH levels. To prepare the LYM broth, 5.4 mM KCl, 5.6 mM Na2HPO4, 0.5 mM MgSO4, and 1.0 mM sodium citrate were added. Additionally, 0.4 mg of ZnCl2, 2.0 mg of FeCl3·6H2O, 0.1 mg of CuSO4·5H2O, 0.1 mg of MnSO4·H2O, 0.1 mg of Na2B4O7∙10H2O, 700 mg of amino acid mixtures without tryptophan (Takara Bio Inc., San Jose, CA, USA), and 20 mg of L-tryptophan were added per liter of medium. The pH was adjusted to 7.4, and a vitamin mixture (100X, Sigma) and glucose concentration of 2% were added. For different conditions of LYM broth, NaCl concentrations of 300, 200, 150, and 50 mM, MgCl2 concentrations of 2.5, 1.5, and 0.5 mM, and pH levels of 6.5, 5.5, and 4.5 were adjusted. Bacterial strains were incubated in MH broth overnight, regrown, and diluted to a final concentration of 5 × 10^5 CFU/mL. Peptides were added to each well at final concentrations of 50, 25, 12.5, 6.25, 3.13, 1.56, and 0.78 µg/mL, and 99 µL of diluted microbes was loaded into each well of a polypropylene 96-well plate. […] The Morpheus HeatMap software (https://software.broadinstitute.org/morpheus/) was used to display MIC values on a color scale. All experiments were independently repeated three times.

Substance | MIC [µg/mL]
Ac-AKKKKWRKWLKWL-NH2 [Peptide W5K10] | 1.56

Same assay, conditions: LYM broth, 0.5 mM MgCl2

Substance | MIC [µg/mL]
Ac-AKKKKWRKWLKWL-NH2 [Peptide W5K10] | 1.56

Same assay, conditions: LYM broth, 1.5 mM MgCl2

Substance | MIC [µg/mL]
Ac-AKKKKWRKWLKWL-NH2 [Peptide W5K10] | 1.56

Same assay, conditions: LYM broth, 2.5 mM MgCl2

Substance | MIC [µg/mL]
Ac-AKKKKWRKWLKWL-NH2 [Peptide W5K10] | 3.13

Same assay, conditions: LYM broth, 50 mM NaCl; 16 h, 37 °C

Substance | MIC [µg/mL]
Ac-AKKKKWRKWLKWL-NH2 [Peptide W5K10] | 1.56

Same assay, conditions: LYM broth, 100 mM NaCl; 16 h, 37 °C

Substance | MIC [µg/mL]
Ac-AKKKKWRKWLKWL-NH2 [Peptide W5K10] | 1.56

Same assay, conditions: LYM broth, 200 mM (NaCl); 16 h, 37 °C

Substance | MIC [µg/mL]
Ac-AKKKKWRKWLKWL-NH2 [Peptide W5K10] | 1.56

Same assay, conditions: LYM broth, 300 mM (NaCl); 16 h, 37 °C

Substance | MIC [µg/mL]
Ac-AKKKKWRKWLKWL-NH2 [Peptide W5K10] | 3.13

Same assay, conditions: LYM broth, pH 4.5

Substance | MIC [µg/mL]
Ac-AKKKKWRKWLKWL-NH2 [Peptide W5K10] | 1.56

Same assay, conditions: LYM broth, pH 5.5

Substance | MIC [µg/mL]
Ac-AKKKKWRKWLKWL-NH2 [Peptide W5K10] | 1.56

Same assay, conditions: LYM broth, pH 6.5

Substance | MIC [µg/mL]
Ac-AKKKKWRKWLKWL-NH2 [Peptide W5K10] | 1.56

Same assay, conditions: MH broth; 5 × 10^5 CFU/mL, 16 h, 37 °C; repeated three times

Substance | MIC [µg/mL]
Ac-AKKKKWRKWLKWL-NH2 [Peptide W5K10] | 3.13

What follows are substances tested on Pseudomonas aeruginosa Migula (ATCC 27853) (assay: not given). Conditions: LYM broth, 0 mM NaCl; 16 h, 37 °C.
Description: as §1, §2

Substance | MIC [µg/mL]
Ac-AKKKKWRKWLKWL-NH2 [Peptide W5K10] | 3.13

Same assay, conditions: LYM broth, 0.5 mM MgCl2

Substance | MIC [µg/mL]
Ac-AKKKKWRKWLKWL-NH2 [Peptide W5K10] | 3.13

Same assay, conditions: LYM broth, 1.5 mM MgCl2

Substance | MIC [µg/mL]
Ac-AKKKKWRKWLKWL-NH2 [Peptide W5K10] | 3.13

Same assay, conditions: LYM broth, 2.5 mM MgCl2

Substance | MIC [µg/mL]
Ac-AKKKKWRKWLKWL-NH2 [Peptide W5K10] | 6.25

Same assay, conditions: LYM broth, 50 mM NaCl; 16 h, 37 °C

Substance | MIC [µg/mL]
Ac-AKKKKWRKWLKWL-NH2 [Peptide W5K10] | 6.25

Same assay, conditions: LYM broth, 100 mM NaCl; 16 h, 37 °C

Substance | MIC [µg/mL]
Ac-AKKKKWRKWLKWL-NH2 [Peptide W5K10] | 6.25

Same assay, conditions: LYM broth, 200 mM (NaCl); 16 h, 37 °C

Substance | MIC [µg/mL]
Ac-AKKKKWRKWLKWL-NH2 [Peptide W5K10] | 12.5

Same assay, conditions: LYM broth, 300 mM (NaCl); 16 h, 37 °C

Substance | MIC [µg/mL]
Ac-AKKKKWRKWLKWL-NH2 [Peptide W5K10] | 25

Same assay, conditions: LYM broth, pH 4.5

Substance | MIC [µg/mL]
Ac-AKKKKWRKWLKWL-NH2 [Peptide W5K10] | 3.13

Same assay, conditions: LYM broth, pH 5.5

Substance | MIC [µg/mL]
Ac-AKKKKWRKWLKWL-NH2 [Peptide W5K10] | 3.13

Same assay, conditions: LYM broth, pH 6.5

Substance | MIC [µg/mL]
Ac-AKKKKWRKWLKWL-NH2 [Peptide W5K10] | 1.56

Same assay, conditions: MH broth; 5 × 10^5 CFU/mL, 16 h, 37 °C; repeated three times

Substance | MIC [µg/mL]
Ac-AKKKKWRKWLKWL-NH2 [Peptide W5K10] | 6.25

These substances were tested on S. aureus ATCC 6538 (assay: not given). Conditions: LYM broth, 0 mM NaCl; 16 h, 37 °C.
Description: as §1, §2

Substance | MIC [µg/mL]
Ac-AKKKKWRKWLKWL-NH2 [Peptide W5K10] | 1.56

Same assay, conditions: LYM broth, 0.5 mM MgCl2

Substance | MIC [µg/mL]
Ac-AKKKKWRKWLKWL-NH2 [Peptide W5K10] | 1.56

Same assay, conditions: LYM broth, 1.5 mM MgCl2

Substance | MIC [µg/mL]
Ac-AKKKKWRKWLKWL-NH2 [Peptide W5K10] | 1.56

Same assay, conditions: LYM broth, 2.5 mM MgCl2

Substance | MIC [µg/mL]
Ac-AKKKKWRKWLKWL-NH2 [Peptide W5K10] | 1.56

Same assay, conditions: LYM broth, 50 mM NaCl; 16 h, 37 °C

Substance | MIC [µg/mL]
Ac-AKKKKWRKWLKWL-NH2 [Peptide W5K10] | 1.56

Same assay, conditions: LYM broth, 100 mM NaCl; 16 h, 37 °C

Substance | MIC [µg/mL]
Ac-AKKKKWRKWLKWL-NH2 [Peptide W5K10] | 3.13

Same assay, conditions: LYM broth, 200 mM (NaCl); 16 h, 37 °C

Substance | MIC [µg/mL]
Ac-AKKKKWRKWLKWL-NH2 [Peptide W5K10] | 6.25

Same assay, conditions: LYM broth, 300 mM (NaCl); 16 h, 37 °C

Substance | MIC [µg/mL]
Ac-AKKKKWRKWLKWL-NH2 [Peptide W5K10] | 12.5

Same assay, conditions: LYM broth, pH 4.5

Substance | MIC [µg/mL]
Ac-AKKKKWRKWLKWL-NH2 [Peptide W5K10] | 6.25

Same assay, conditions: LYM broth, pH 5.5

Substance | MIC [µg/mL]
Ac-AKKKKWRKWLKWL-NH2 [Peptide W5K10] | 3.13

Same assay, conditions: LYM broth, pH 6.5

Substance | MIC [µg/mL]
Ac-AKKKKWRKWLKWL-NH2 [Peptide W5K10] | 1.56

Same assay, conditions: MH broth; 5 × 10^5 CFU/mL, 16 h, 37 °C; repeated three times

Substance | MIC [µg/mL]
Ac-AKKKKWRKWLKWL-NH2 [Peptide W5K10] | 6.25

Each substance was assayed on Gram-negative bacteria (assay: Geometric mean MIC and therapeutic index, Gram-negative bacteria). Conditions: Gram-negative bacteria, MH broth; MIC >50 µg/mL counted as 100 µg/mL.
Type: cell-based
Description: In this study, we aimed to investigate the potential of W5K series peptides for therapeutic use. To evaluate their efficacy for antibacterial therapy, we used the Therapeutic Index (TI) as a measure of their cell selectivity. The TI was calculated as the ratio of the concentration causing 10% hemolysis of human red blood cells (HC10) to the geometric mean minimum inhibitory concentration (GM) of the peptides against both Gram-negative and Gram-positive bacteria. This parameter was used to quantitatively assess the balance between antibacterial potency and cytotoxicity among the W5K derivatives.
as §2

Substance | GM G− (geometric mean of the MIC values) [µg/mL]
Ac-AKKKKWRKWLKWL-NH2 [Peptide W5K10] | 3.1

Same assay, conditions: HC10/GM, Gram-negative bacteria

Substance | Therapeutic Index (TI) G−
Ac-AKKKKWRKWLKWL-NH2 [Peptide W5K10] | 34.8
